Experimental data published in patent US20110118269A1, “FUSED PYRAZINE COMPOUNDS AS THEIR SALTS, USEFUL FOR THE TREATMENT OF DEGENERATIVE AND INFLAMMATORY DISEASES” (priority 2009, published 2011).
In brackets after ≈: the same amount, converted by molar mass.

Key:
[1] = Thermodynamic aqueous solubility study by HPLC (Example 5); type: physicochemical; conditions: thermodynamic from solid
Description: Quantitation is done by HPLC with reference to a standard calibration curve. […] If there is sufficient solid remaining, the XRPD is collected.

[2] = Tolerability of compounds in healthy mice (total body weight); type: in vivo, DBA/1J mice; conditions: 100 mg/kg/d, po, up to two weeks
Method: This protocol is designed to assess the tolerability of the compounds of the invention in healthy DBA/1J mice to determine the “therapeutic window” as defined by the dosing range between efficacious (mouse therapeutic Collagen-Induced Arthritis model) and toxic doses.
DBA/1J […] mice are used (CERJ (France)), the mice are 10-11 weeks old, and have a body weight of approx 20g.
Compounds are prepared for a dosing regimen of 100 mg/kg/d, po, free base, in a standard volume of injection of 0.1 mL/10 g of mice (equivalent to 10 mg/1 mL). For solution preparations, compounds are dissolved in 0.5% methyl-cellulose and 1% DMSO supplemented with 1 molar equivalent of methanesulfonic acid to ensure full dissolution, once a week.
Groups are randomized based on body weight and treated for up to two weeks. Each group contained 5 mice and received either test compound at 100 mg/kg, a comparison compound at 100 mg/kg/d (Compound A) or vehicle on a daily basis in a dosing volume of 200 μL per mouse.
Potential drug toxicity is monitored by observation every day and by recording body weights three times a week for weight loss. All statistical analyses are performed using Student's t test.
To assess the general tolerability of the treatments, the total body weight is followed throughout the course of the study.

[3] = system: MMP13 expression in SW1353 cells; experiment: IL-1/OSM driven MMP13 expression in SW1353 cells (MMP13 ELISA); type: cell-based; conditions: Homo sapiens, IL-1β and OSM, 48 hr
Method: A 384 well format ELISA for measurement of MMP13 was developed. Various primary antibodies are tested, as well as various ELISA protocols. The following protocol is developed and validated to measure MMP13 levels in supernatant of cell cultures in 384 well plates.
Black maxisorb 384 well plates (Nunc 460518) are coated with 35 μL of a buffered solution containing 1.5 μg/mL anti-MMP13 antibody MAB511 (R&D systems). The antibody is diluted in carbonate-bicarbonate coating buffer (1.59 g Na2CO3 (Sigma S-7795) and 2.93 g NaHCO3 (Sigma S-5761) in 1 L MilliQ water, adjusted to pH 9.6). […] Substrate solution is prepared as follows: OmniMMP Fluorescent substrate (Biomol P-126) stock solution (2 mM in DMSO, stored at −20° C.) is diluted in 1× OmniMMP buffer (10× OmniMMP buffer: 500 mM Hepes (Sigma H4034), 100 mM CaCl2 (Sigma C5080), 0.5% Brij35 (Sigma 430 AG-6; adjusted to pH 7.0) to a final concentration of 0.01 mM. After an overnight incubation at 37° C., the active MMP13 in the sample has cleaved the substrate and released fluorescence. Readout is performed on the EnVision (Perkin Elmer) using 320 nm excitation/405 nm emission filters. […]

solubility ([1]; buffer pH 2.0, pH 2, aqueous buffer): 300 µg/mL (≈ 654 µM)
solubility ([1]; buffer pH 7.4, pH 7.4, aqueous buffer): 10 µg/mL (≈ 21.8 µM)
solubility ([1]; pure water, water): 10 µg/mL (≈ 21.8 µM)
IC50 [3]: 50 to 500 nM
SMILES: CC(C)N1C[C@@H]2C[C@H]1CN2c1ccc(Nc2ncc(-c3coc(C(N)=O)c3)n3ncnc23)cc1 [Compound 1, 4-{8-[4-((1S,4S)-5-Isopropyl-2,5-diaza-bicyclo[2.2.1]hept-2-yl)-phenylamino]-[1,2,4]triazolo[1,5-a]pyrazin-5-yl}-furan-2-carboxamide]
weight of the animals compared to the vehicle [2]: no statistically significant difference
